Values of other authors in patent US10307430B2, “KATP antagonists (glibenglamid) for use for promoting growth and/or treating hyperglycaemia of a premature infant” (ASSISTANCE PUBLIQUE—HOPITAUX DE PARIS, priority 2011, dated 2019).

How the values were obtained:
human fetal β cells = human fetal β cells from 14 to 20 week gestational fetus (Weinhaus et al., 2003)
[1] = preterm newborn infants, when used with caution (Mitanchez, 2007; Beardsall and Dunger, 2008)
[2] = intravenous, first week of life, very low birth weight infants (Beardsall et al., 2007)
[3] = early insulin replacement, intravenous (Beardsall et al., 2008)

COC(=O)C1=C(C)NC(C)=C([N+](=O)[O-])C1c1ccccc1C(F)(F)F (stereo not shown) [BAY K8644]
insulin secretion in response to secretagogue (human fetal β cells): able to secrete insulin

[Cl-].[K+] [KCl]
insulin secretion in response to secretagogue (human fetal β cells): able to secrete insulin

Cc1cnc(C(=O)NCCc2ccc(S(=O)(=O)NC(=O)NC3CCCCC3)cc2)cn1 [glipizide]
insulin secretion in response to secretagogue (human fetal β cells): able to secrete insulin

insulin
endogenous glucose production [1]: efficient to reduce endogenous glucose production
IGF-I levels [2]: increases IGF-I levels
blood glucose control [2]: improves blood glucose control
risk of hypoglycaemia [3]: increased risk of hypoglycaemia
weight loss in the first week of life [3]: reduced weight loss
glucose control (early insulin replacement, intravenous, 194 very-low-birth-weight infants (Beardsall et al., 2008)): improved glucose control
clinical benefit (early insulin therapy, infants with very low birth weight (Beardsall et al., 2008)): no clinical benefit
